Test results: US7297535B2, “Use of the human LRP/MVP promotor for a vector that can be induced by therapy” (Max-Delbrück-Centrum Für Molekulare Medizin, priority 2000, dated 2007)

Tested on: LRP/MVP promoter
Test: Inducibility of LRP/MVP promoter by cytostatics (CAT expression)
Type: cell-based, human
Conditions: for inducibility of the human LRP/MVP gene promoter by therapy-relevant factors: general statement, no details given

Row | Compound | induction of LRP/MVP-promoter-mediated CAT expression (24 h after cytostatic administration, FIG. 2) | inducibility of the human LRP/MVP gene promoter by therapy-relevant factors
1 | O=c1[nH]cc(F)c(=O)[nH]1 [5-fluoruracil] | induced | inductors
2 | COc1cccc2c1C(=O)c1c(O)c3c(c(O)c1C2=O)C[C@@](O)(C(=O)CO)C[C@@H]3O[C@H]1C[C@H](N)[C@H](O)[C@H](C)O1 [adriamycin] |  | inductors
3 | N.N.[Cl][Pt][Cl] [cisplatin] |  | inductors
4 | CC[C@]1(O)C[C@H]2CN(CCc3c([nH]c4ccccc34)[C@@](C(=O)OC)(c3cc4c(cc3OC)N(C=O)[C@H]3[C@@](O)(C(=O)OC)[C@H](OC(C)=O)[C@]5(CC)C=CCN6CC[C@]43[C@@H]65)C2)C1 [vincristin] |  | inductors
